# According to US20240299412A1, “DRUG FORMULATIONS OF 4-(3,3-DIFLUORO-2,2-DIMETHYL-PROPANOYL) -3,5-DIHYDRO-2H-PYRIDO[3,4-f][1,4]OXAZEPINE-9-CARBONITRILE” (Genzyme Corporation, priority 2023, published 2024):
# Columns and labels:
# Type in all cases: physicochemical
# [1] = Physical and chemical stability of Form A (solid storage)
# Protocol: To evaluate the physical and chemical stability, Compound (1) Form A was stored in 3 conditions (40° C./75% RH; 25° C./60% RH; and 60° C.) for one and four weeks.
# [2] = Kinetic solubility in bio-relevant media and H2O; conditions: for Final Form: residual solid; for Final Form / solubility at 1 h / solubility at 4 h / solubility at 24 h: 37° C.; for solubility at 1 h / solubility at 4 h / solubility at 24 h: thermodynamic from solid, Turbid
# Protocol: Solids were suspended in FaSSIF, FeSSIF, SGF and H2O with target conc. of ˜10 mg/mL. The suspensions were agitated on a rolling incubator at 25 rpm (in the incubator set at 37° C.) for 1, 4 and 24 hrs. At each time point, 1 mL of the suspension was pipetted out for centrifugation at 15000 rpm (3 min) and filtration through 0.45 μm membrane to obtain supernatant for HPLC solubility and pH tests, the residual solids were analyzed by XRPD.
# [3] = 24-Hrs solubility in pH buffers; conditions: for solubility at 24 h: aqueous buffer, thermodynamic from solid, Turbid; for Final Form: residual solid; for solubility at 24 h / Final Form: 24 hrs
# [4] = Dynamic vapor sorption (DVS)
# Protocol: DVS. DVS was measured via a SMS (Surface Measurement Systems) DVS Intrinsic. The relative humidity at 25° C. were calibrated against deliquescence point of LiCl, Mg(NO3)2 and KCl.
# (onset temperature). Considering the low TGA weight loss and single sharp DSC endotherm, Form A was postulated to be an anhydrate. […] However Form A has been prepared with much lower volatile content (0.1% or lower).
# [5] = Solution stability in pH buffers; conditions: 37° C.; for Purity vs. Initial (%): ~0.5 mg/mL, Clear
# Protocol: Solution stability study was performed in pH 2.0/4.0/6.0/7.0 (24 hrs) and pH 8.0 (24 hrs and 96 hrs) buffers. Solids were dissolved with pH buffers with target conc. of ˜0.5 mg/mL to form clear solutions and stored at 37° C. for 24 hrs or 96 hrs.
# [6] = 40° C./75% RH, 25° C./60% RH, 60° C., one and four weeks
# [7] = pH 7.0 (50 mM Phosphate), 24 hrs
# [8] = pH 8.0 (50 mM Phosphate), 24 hrs
# [9] = pH 8.0 (50 mM Phosphate), 96 hrs
smiles,measurement,setting,value
"CC(C)(C(=O)N1CCOc2c(C#N)cncc2C1)C(F)F [Form A, 4-(3,3-difluoro-2,2-dimethyl-propanoyl)-3,5-dihydro-2H-pyrido[3,4-f][1,4]oxazepine-9-carbonitrile]",API (RRT 1.00) % Area,"[1]; 1 week, 25° C./60% RH",99.92 % Area
same,Description,"[1]; 1 week, 25° C./60% RH",White powder
same,Final Form,"[1]; 1 week, 25° C./60% RH",Form A
same,Imp.1 (RRT 0.68) % Area,"[1]; 1 week, 25° C./60% RH",0.08 % Area
same,Purity VS. initial (%),"[1]; 1 week, 25° C./60% RH",100.0%
same,API (RRT 1.00) % Area,"[1]; 1 week, 40° C./75% RH",99.89 % Area
same,Description,"[1]; 1 week, 40° C./75% RH",White powder
same,Final Form,"[1]; 1 week, 40° C./75% RH",Form A
same,Imp.1 (RRT 0.68) % Area,"[1]; 1 week, 40° C./75% RH",0.11 % Area
same,Purity VS. initial (%),"[1]; 1 week, 40° C./75% RH",100.0%
same,API (RRT 1.00) % Area,"[1]; 1 week, 60° C.",99.90 % Area
same,Description,"[1]; 1 week, 60° C.",White powder
same,Final Form,"[1]; 1 week, 60° C.",Form A
same,Imp.1 (RRT 0.68) % Area,"[1]; 1 week, 60° C.",0.10 % Area
same,Purity VS. initial (%),"[1]; 1 week, 60° C.",100.0%
same,API (RRT 1.00) % Area,"[1]; 4 weeks, 25° C./60% RH",99.90 % Area
same,Description,"[1]; 4 weeks, 25° C./60% RH",White powder
same,Final Form,"[1]; 4 weeks, 25° C./60% RH",Form A
same,Imp.1 (RRT 0.68) % Area,"[1]; 4 weeks, 25° C./60% RH",0.10 % Area
same,Purity VS. initial (%),"[1]; 4 weeks, 25° C./60% RH",100.0%
same,API (RRT 1.00) % Area,"[1]; 4 weeks, 40° C./75% RH",99.90 % Area
same,Description,"[1]; 4 weeks, 40° C./75% RH",White powder
same,Final Form,"[1]; 4 weeks, 40° C./75% RH",Form A
same,Imp.1 (RRT 0.68) % Area,"[1]; 4 weeks, 40° C./75% RH",0.10 % Area
same,Purity VS. initial (%),"[1]; 4 weeks, 40° C./75% RH",100.0%
same,API (RRT 1.00) % Area,"[1]; 4 weeks, 60° C.",99.90 % Area
same,Description,"[1]; 4 weeks, 60° C.",White powder
same,Final Form,"[1]; 4 weeks, 60° C.",Form A
same,Imp.1 (RRT 0.68) % Area,"[1]; 4 weeks, 60° C.",0.10 % Area
same,Purity VS. initial (%),"[1]; 4 weeks, 60° C.",100.0%
same,HPLC purity change on storage,[1]; [6],no obvious HPLC purity change
same,form change on storage (XRPD),[1]; [6],no form change
same,API (RRT 1.00) % Area,[1]; Initial,99.89 % Area
same,Imp.1 (RRT 0.68) % Area,[1]; Initial,0.11 % Area
same,form change after kinetic solubility test,[2]; bio-relevant media or H2O,No form change
same,Final Form,"[2]; FaSSIF (pH 6.5), 1 hr",Form A
same,Final Form,"[2]; FaSSIF (pH 6.5), 4 hr",Form A
same,Final Form,"[2]; FaSSIF (pH 6.5), 24 hr",Form A
same,Final Form,"[2]; FeSSIF (pH 5.0), 1 hr",Form A
same,Final Form,"[2]; FeSSIF (pH 5.0), 4 hr",Form A
same,Final Form,"[2]; FeSSIF (pH 5.0), 24 hr",Form A
same,Final Form,"[2]; H2O (pH 6.5), 1 hr",Form A
same,Final Form,"[2]; H2O (pH 6.5), 4 hr",Form A
same,Final Form,"[2]; H2O (pH 6.5), 24 hr",Form A
same,Final Form,"[2]; SGF (pH 1.8), 1 hr",Form A
same,Final Form,"[2]; SGF (pH 1.8), 4 hr",Form A
same,Final Form,"[2]; SGF (pH 1.8), 24 hr",Form A
same,solubility at 1 h,"[2]; simulated gastric fluid, SGF (pH 1.8), 1 hr, final pH 1.8",2300 µg/mL
same,solubility at 4 h,"[2]; simulated gastric fluid, SGF (pH 1.8), 4 hr, final pH 2.3",2400 µg/mL
same,solubility at 24 h,"[2]; simulated gastric fluid, SGF (pH 1.8), 24 hr, final pH 2.2",2500 µg/mL
same,solubility at 1 h,"[2]; FaSSIF (pH 6.5), 1 hr, final pH 6.4",1100 µg/mL
same,solubility at 4 h,"[2]; FaSSIF (pH 6.5), 4 hr, final pH 6.6",1100 µg/mL
same,solubility at 24 h,"[2]; FaSSIF (pH 6.5), 24 hr, final pH 6.6",1200 µg/mL
same,solubility at 1 h,"[2]; FeSSIF (pH 5.0), 1 hr, final pH 5.6",1100 µg/mL
same,solubility at 4 h,"[2]; FeSSIF (pH 5.0), 4 hr, final pH 5.6",1200 µg/mL
same,solubility at 24 h,"[2]; FeSSIF (pH 5.0), 24 hr, final pH 5.6",1200 µg/mL
same,solubility at 1 h,"[2]; water, H2O (pH 6.5), 1 hr, final pH 8.5",1100 µg/mL
same,solubility at 4 h,"[2]; water, H2O (pH 6.5), 4 hr, final pH 8.4",1100 µg/mL
same,solubility at 24 h,"[2]; water, H2O (pH 6.5), 24 hr, final pH 8.7",1100 µg/mL
same,solubility at 24 h,"[3]; 50 mM HCl-KCl buffer, pH 2.0 (50 mM HCl—KCl), final pH 2.3",1800 µg/mL
same,solubility at 24 h,"[3]; 50 mM citrate buffer, pH 4.0 (50 mM Citrate), final pH 4.1",840 µg/mL
same,solubility at 24 h,"[3]; 50 mM citrate buffer, pH 6.0 (50 mM Citrate), final pH 5.9",750 µg/mL
same,solubility at 24 h,"[3]; 50 mM phosphate buffer, pH 7.0 (50 mM Phosphate), final pH 6.9",900 µg/mL
same,solubility at 24 h,"[3]; 50 mM phosphate buffer, pH 8.0 (50 mM Phosphate), final pH 7.8",810 µg/mL
same,form change after equilibrium solubility evaluation,[3]; pH buffers,no form change
same,Final Form,[3]; pH 2.0 (50 mM HCl—KCl),Form A
same,Final Form,[3]; pH 4.0 (50 mM Citrate),Form A
same,Final Form,[3]; pH 6.0 (50 mM Citrate),Form A
same,Final Form,[3]; pH 7.0 (50 mM Phosphate),Form A
same,Final Form,[3]; pH 8.0 (50 mM Phosphate),Form A
same,water uptake (DVS),[4]; 25 C.°/80% RH,0.024%
same,form change after DVS test (XRPD),[4]; after DVS test,no form change
same,API (RRT 1.00) % Area,"[5]; pH 2.0 (50 mM HCl—KCl), 24 hrs",84.93 % Area
same,Imp. 1 (RRT 0.66) % Area,"[5]; pH 2.0 (50 mM HCl—KCl), 24 hrs",0.15 % Area
same,Imp. 1 (RRT 0.70) % Area,"[5]; pH 2.0 (50 mM HCl—KCl), 24 hrs",0.67 % Area
same,Imp. 1 (RRT 0.76) % Area,"[5]; pH 2.0 (50 mM HCl—KCl), 24 hrs",14.25 % Area
same,Imp. 1 (RRT 1.05) % Area,"[5]; pH 2.0 (50 mM HCl—KCl), 24 hrs",— (—: <0.05 area %)
same,Purity vs. Initial (%),"[5]; pH 2.0 (50 mM HCl—KCl), 24 hrs",85.1%
same,degradation in solution,"[5]; pH 2.0 and pH 4.0 buffers, 24 hrs",Degradation was observed
same,API (RRT 1.00) % Area,"[5]; pH 4.0 (50 mM Citrate), 24 hrs",98.42 % Area
same,Imp. 1 (RRT 0.66) % Area,"[5]; pH 4.0 (50 mM Citrate), 24 hrs",0.15 % Area
same,Imp. 1 (RRT 0.70) % Area,"[5]; pH 4.0 (50 mM Citrate), 24 hrs",— (—: <0.05 area %)
same,Imp. 1 (RRT 0.76) % Area,"[5]; pH 4.0 (50 mM Citrate), 24 hrs",0.38 % Area
same,Imp. 1 (RRT 1.05) % Area,"[5]; pH 4.0 (50 mM Citrate), 24 hrs",0.06 % Area
same,Purity vs. Initial (%),"[5]; pH 4.0 (50 mM Citrate), 24 hrs",98.5%
same,API (RRT 1.00) % Area,"[5]; pH 6.0 (50 mM Citrate), 24 hrs",99.75 % Area
same,Imp. 1 (RRT 0.66) % Area,"[5]; pH 6.0 (50 mM Citrate), 24 hrs",0.13 % Area
same,Imp. 1 (RRT 0.70) % Area,"[5]; pH 6.0 (50 mM Citrate), 24 hrs",— (—: <0.05 area %)
same,Imp. 1 (RRT 0.76) % Area,"[5]; pH 6.0 (50 mM Citrate), 24 hrs",0.06 % Area
same,Imp. 1 (RRT 1.05) % Area,"[5]; pH 6.0 (50 mM Citrate), 24 hrs",0.06 % Area
same,Purity vs. Initial (%),"[5]; pH 6.0 (50 mM Citrate), 24 hrs",99.8%
same,API (RRT 1.00) % Area,[5]; [7],99.78 % Area
same,Imp. 1 (RRT 0.66) % Area,[5]; [7],0.15 % Area
same,Imp. 1 (RRT 0.70) % Area,[5]; [7],— (—: <0.05 area %)
same,Imp. 1 (RRT 0.76) % Area,[5]; [7],— (—: <0.05 area %)
same,Imp. 1 (RRT 1.05) % Area,[5]; [7],0.07 % Area
same,Purity vs. Initial (%),[5]; [7],99.9%
same,API (RRT 1.00) % Area,[5]; [8],99.81 % Area
same,Imp. 1 (RRT 0.66) % Area,[5]; [8],0.13 % Area
same,Imp. 1 (RRT 0.70) % Area,[5]; [8],— (—: <0.05 area %)
same,Imp. 1 (RRT 0.76) % Area,[5]; [8],— (—: <0.05 area %)
same,Imp. 1 (RRT 1.05) % Area,[5]; [8],0.06 % Area
same,Purity vs. Initial (%),[5]; [8],100.0%
same,API (RRT 1.00) % Area,[5]; [9],99.83 % Area
same,Imp. 1 (RRT 0.66) % Area,[5]; [9],0.13 % Area
same,Imp. 1 (RRT 0.70) % Area,[5]; [9],— (—: <0.05 area %)
same,Imp. 1 (RRT 0.76) % Area,[5]; [9],— (—: <0.05 area %)
same,Imp. 1 (RRT 1.05) % Area,[5]; [9],0.04 % Area
same,Purity vs. Initial (%),[5]; [9],100.0%
